# Measurements taken from patent publication US12329727B2, “Use of salmeterol as an anti-coronaviral agent” (priority 2020, dated 2025).
# Like-named read-outs stand apart in the source and are kept apart here.
# Tests used:
# [1] = test system: NAADP-evoked Ca2+ release (TPC activity); type: biochemical, sea urchin
# ciliary beat frequency = details: cited from earlier work
# SARS-CoV-2 pseudovirus = type: cell-based, SARS-CoV-2; HEK293 cells expressing ACE2
# MERS-pseudovirus = type: cell-based, MERS-COV; Huh7 cells
# mast cell degranulation = details: human lung; cited from earlier work
compound,measurement,setting,value
"OCc1cc(C(O)CNCCCCCCOCCCCc2ccccc2)ccc1O (racemic) [salmeterol, (RS)-2-(hydroxymethyl)-4-{1-hydroxy-2-[6-(4-phenylbutoxy)hexylamino]ethyl}phenol]",inhibition of TPC activity,[1],able to inhibit
same,"rank for TPC inhibition (amplitude of NAADP-evoked Ca2+ release, rank #1 = greatest inhibition)",[1],16/1534
same,ciliary beat frequency,ciliary beat frequency,rapid and prolonged increase
same,inhibition of SARS-CoV-2 pseudovirus infectivity,SARS-CoV-2 pseudovirus; 10 μM,pronounced inhibition
same,inhibition of MERS-COV infectivity in a pseudovirus translocation assay,MERS-pseudovirus,potent and penetrant
same,mast cell degranulation,mast cell degranulation,potent and long-lasting inhibition
NCCOB(c1ccccc1)c1ccccc1 [2-APB],inhibition of SARS-CoV-2 pseudovirus infectivity,SARS-CoV-2 pseudovirus; 10 μM,no effect
CC(=O)OCOC(=O)CN(CC(=O)OCOC(C)=O)c1ccccc1OCCOc1ccccc1N(CC(=O)OCOC(C)=O)CC(=O)OCOC(C)=O [BAPTA-AM],inhibition of SARS-CoV-2 pseudovirus infectivity,SARS-CoV-2 pseudovirus,nearly complete inhibition
ryanodine,inhibition of SARS-CoV-2 pseudovirus infectivity,SARS-CoV-2 pseudovirus; 10 μM,no effect
xestospongin,inhibition of SARS-CoV-2 pseudovirus infectivity,SARS-CoV-2 pseudovirus; 10 μM,no effect
